According to patent US8586556B2, “Methods, compositions and drug delivery systems for intraocular delivery of siRNA molecules” (Allergan, Inc., priority 2006, dated 2013):

System: neovascularization
Assay: Placement of the drug delivery systems into the vitreous of an eye: duration of therapeutic benefit
Assay type: in vivo
Conditions: drug delivery system placed into the vitreous of an eye
From the text: (§1) Drug delivery systems which comprise about 86.1 milligrams of Cand5 can be produced similar to those systems described in Examples 1. Such drug delivery systems release Cand5 at a rate from about 49.7 micrograms per day to about 4970 micrograms per day. The release rates can be measured using in vitro and/or in vivo assays as described above. […] Improvements in patient function, such as vision and intraocular pressure, can be observed at longer time periods.
as §1, with “siRNA Z” for “Cand5”, “1, above.” for “1.”

## Cand5: siRNA from Acuity Pharmaceuticals/Avecia that silences genes producing VEGF; sense SEQ ID NO: 3, antisense SEQ ID NO: 4 (sense ACCUCACCAAGGCCAGCAC; antisense GUGCUGGCCUUGGUGAGGU; listed as RNA, chemistry not fully specified; listed as Homo Sapiens)
  duration of therapeutic benefits, such as the treatment of neovascularization, after a single administration: at least about thirty days
